Source: patent US9833430B2, “Neurodegenerative disorders and methods of treatment and diagnosis thereof” (The University of Queensland, priority 2013, dated 2017)
“Also recorded” adds a separate entry of the source.

How the values were obtained:
Type in all cases: in vivo
wild-type mice = assay: Hind limb grip strength test in wild-type mice on triheptanoin diet; conditions: triheptanoin n=15 vs control n=12
Protocol: All experiments were approved by the University of Queensland's Animal Ethics Committee and followed the guidelines of the Queensland Animal Care and Protection Act 2001. All efforts were made to minimize the suffering and the number of animals used. Wild-type and hSOD1^G93A mice (B6.Cg-Tg(SOD1*G93A)1 Gur/J, stock no. 004435, Jackson laboratory, Maine, USA), were generated by mating hSOD1^G93A males with C57B/L6 wild-type females (University of Queensland). Mice were housed in a 12 hour light, 12 hour dark cycle, and had free access to food and water. Experimenters were blinded to animal genotype (until the mice started expressing the ALS phenotype) and dietary interventions. […]
(§1) Hind limb grip strength tests were conducted twice a week using a T-bar force transducer (Ugo Basile, Italy). […] The reading on the force transducer was taken only if both hind limbs released the bar at the same time. The average of 10 trials per mouse was recorded each training session. To compare time points of grip strength loss, the time point where a loss of more than 30% of the combined mean grip strength of week 9 to 13 was recorded, if the subsequent 3 measurements were ≦70% of the original average strength.

[1] = test system: Pdha1, Ogdh, Sdha and Mut mRNA in gastrocnemius muscle of hSOD1^G93A mice; assay: Quantitative real time PCR of metabolic genes in gastrocnemius muscle; conditions: 10 week old hSOD1^G93A mice, triheptanoin feeding
Source text: After euthanasia, the gastrocnemius muscle was quickly removed and frozen in liquid nitrogen. To extract RNA, muscle samples were pulverized in liquid nitrogen with a cold mortar and pestle, dissolved with TRI reagent (Life Technologies, CA, USA) and extracted according to the manufacturer's instructions. Contaminating DNA was removed by DNase I treatment and cDNA was synthesized using the Tetro cDNA synthesis kit (Bioline, London, UK) according to the manufacturer's instructions.
Expression of several metabolic genes was assayed (Gapdh, Pdha1, Ogdh, Sdha, Pcx, Gpt1, Gpt2, Pcca, Pccb and Mut) by quantitative real time PCR. All primers pairs (Table 1) were evaluated for efficiency using a 4 fold serial dilution series of muscle cDNA. The derived slope of each primer pair was used to calculate the efficiency by applying the formula, […]. Reactions consisted with diluted cDNA, 5 μl of SYBR Green Mastermix and 8 μM of forward and reverse primers each, and were amplified after an initial hot start. Conditions for cycling and the melt curve were identical to those described for quantitative genotyping. Samples without reverse transcriptase treatment were assayed to ensure that samples were free from DNA contamination. The fold expression (ΔCT) of the gene of interest (goi) relative to the geometric mean of housekeeping genes (Tbp, B2m and Hmbs) were calculated with a formula adapted from (Vandesompele et al., 2002) taking into consideration the individual efficiencies (E) of each primer pair.

hSOD1^G93A mice [2] = assay: Survival, days taken to reach end-stage
Source text: (§2) Immediately after weaning, mice were placed on either a standard diet (SF11-027, Specialty Feeds, WA, AUS) or a matched diet (SF11-028, Specialty Feeds) in which 35% of the calories were from triheptanoin oil (Sasol, Germany). All diets were matched in protein, mineral, antioxidant and vitamin content relative to their caloric densities (Thomas et al., 2012). Triheptanoin replaced sucrose, some of the complex carbohydrates and long chain fats in the diet.
(§3) Animals underwent behavioral testing approximately 3-4 hours into the light cycle. All behavioral testing was conducted in an environment with minimal stimuli so as to minimize any possible effects caused by changes in external stimuli. Animals were weighed before every test session. Mice were observed, and disease progression tracked and graded according to a neurological score sheet to ensure that any non-ALS related deaths were excluded from the study. The neurological score was adapted from criteria developed at the ALS therapy development institute (Gill et al., 2009). In accordance with ethical requirements, hSOD1^G93A mice that became too weak to reach the food hoppers were provided with wet chow on the floor of the cages. The endpoint of the study was defined as the mouse being unable to right itself within 15 seconds after being placed on its back. […]

hSOD1^G93A mice [3] = assay: Rotarod test, onset of balance loss
Source text: as §2
as §3, with “cages.” for “cages. The endpoint of the study was defined as the mouse being unable to right itself within 15 seconds after being placed on its back.”
The rotarod tests were conducted with 10 repeats once a week using a rotarod designed for mice (Ugo Basile, Italy). […] The time at which the animal fell off was recorded. […]

hSOD1^G93A mice [4] = assay: Hind limb grip strength test in hSOD1^G93A mice on triheptanoin diet
Protocol: All experiments were approved by the University of Queensland's Animal Ethics Committee and followed the guidelines of the Queensland Animal Care and Protection Act 2001. All efforts were made to minimize the suffering and the number of animals used. Wild-type and hSOD1^G93A mice (B6.Cg-Tg(SOD1*G93A)1 Gur/J, stock no. 004435, Jackson laboratory, Maine, USA), were generated by mating hSOD1^G93A males with C57B/L6 wild-type females (University of Queensland). Mice were housed in a 12 hour light, 12 hour dark cycle, and had free access to food and water. Experimenters were blinded to animal genotype (until the mice started expressing the ALS phenotype) and dietary interventions.
as §2
as §3, with “back. Upon reaching end-stage or 25 weeks of age, transgenic mice and their respective wild-type littermates were euthanized with an overdose of pentobarbital (120 mg/kg, i.p., Provet, Australia). Tissues, including the m. gastrocnemius and tail, were collected for subsequent analysis.” for “back.”
as §1

hSOD1^G93A mice [5] = assay: Body weight and onset of body weight loss in hSOD1^G93A mice
Source text: as §2, §3

hSOD1^G93A mice [6] = assay: Motor neuron counting (stereological, L2 to L5); conditions: hSOD1^G93A mice at 70 days
Protocol: Mice were fed with control or triheptanoin diet from 35 days until 70 days of age, when mice were anesthetized with pentobarbital (100 mg/kg i.p.), perfused with 0.9% saline followed by 4% paraformaldehyde. Spinal cords were removed and further fixed in 4% paraformaldehyde and subsequently embedded in OCT compound and serial sections of 16 μm were cut from lumbar vertebrae. Sections were washed in cold PBS and stained with 0.1% thionin in acetate buffer (pH3.4). The motor neurons were counted using stereological method as previously described (Banks et al., 2001; 2003; Forgarty et al., 2013). Briefly, motor neurons in the lateral motor column (LMC) from one side of the spinal cord were counted and only neurons that are large in size with darkly stained cytoplasm, pale nucleus and darkly stained nucleoli were counted (Clarke and Oppenheim, 1995). Every 10th section from lumbar 2 to lumbar 5 regions was counted to get the total motor neuron count which was then divided by the number of sections counted and multiplied by the total number of sections containing the LMC.

For `CCCCCCC(=O)OCC(COC(=O)CCCCCC)OC(=O)CCCCCC` [triheptanoin, 1,3-di(heptanoyloxy)propan-2-yl heptanoate], the “difference in mean hind limb grip strength vs control diet” value (wild-type mice) was “no observable difference”, the “protection from reduced expression of 2-oxo-glutarate dehydrogenase (Ogdh) mRNA” value [1] was “not” and the “protection from reduced expression of methylmalonyl mutase (Mut) mRNA” value [1] was “not”. The “protection from reduced expression of pyruvate dehydrogenase (Pdha1) mRNA” value [1] was “protected”, the “protection from reduced expression of succinate dehydrogenase (Sdha) mRNA” value [1] was “protected” and the effect on survival (hSOD1^G93A mice [2]; small study) was “did not alter survival”. The “number of days taken to reach end-stage” value (hSOD1^G93A mice [2]; triheptanoin n=7, mean±SEM, p=0.653 vs control) was 174.9 ± 3.5 days, the “time of onset of loss of balance delayed by” value (hSOD1^G93A mice [3]; hSOD1^G93A mice, triheptanoin vs control diet, p=0.0016) was 1.6 weeks and the “onset of balance loss on the rota-rod delayed by” value (hSOD1^G93A mice [3]; triheptanoin fed vs control fed SOD1^G93A mice, p=0.0016 (FIG. 3F legend)) was 13 days. The “hind limb grip strength (upper limit over time)” value (hSOD1^G93A mice [4]; hSOD1^G93A mice on both diets) was no more than 400 mN, the “onset of hind limb grip strength loss delayed by” value (hSOD1^G93A mice [4]; high copy number (19-24) hSOD1^G93A mice, diet with 35% of calories from triheptanoin vs control diet (n=8 vs n=5)) was 2.8 weeks and the “hind limb grip strength at 18 and 19.5 weeks of age vs control diet” value (hSOD1^G93A mice [4]; high copy number hSOD1^G93A mice, Bonferroni post-hoc p<0.05) was “higher hind limb grip strength; also recorded: significantly higher grip strength”. The “area under the curve for grip strength over time, increase relative to control diet” value (hSOD1^G93A mice [4]; high copy number hSOD1^G93A mice, triheptanoin diet vs control diet, p=0.024) was 38%, the “onset of body weight loss delayed by” value (hSOD1^G93A mice [5]; hSOD1^G93A mice, triheptanoin feeding vs control, p=0.007) was 1.6 weeks and the “onset of body weight loss delayed by” value (hSOD1^G93A mice [5]; triheptanoin fed (n=8) vs control fed (n=5) SOD1^G93A mice, p=0.0076 (FIG. 3H legend)) was 11 days. The “loss of motor neurons between L2 and L5 vs wild type” value (hSOD1^G93A mice [6]; triheptanoin diet from 35 days (n=4), control diet 37% loss) was 21% and the “motor neuron numbers compared with wild type mice” value (hSOD1^G93A mice [6]; triheptanoin fed, n=4) was “not significantly different from wild type mice”.
